Test results published in patent EP1043020A1, “MEDICINAL COMPOSITION FOR PERCUTANEOUS ADMINISTRATION” (priority 1997, dated 1999).
Read-outs that look alike come from different tables or passages of the source.

Experiments:
[1] = in vitro skin permeability test in pig; format: in vitro ADME, Yucatan miniature pig
[2] = not given; remark: listed apart in the source

In the case of `CC(=N)N1CC[C@H](Oc2ccc([C@H](Cc3ccc4ccc(C(=N)N)cc4c3)C(=O)O)cc2)C1.Cl.O.O.O.O.O` [compound A, (2S)-2-[4-[((3S)-1-acetimidoyl-3-pyrrolidinyl)oxy]phenyl]-3-(7-amidino-2-naphthyl)propionic acid hydrochloride pentahydrate], the “Percutaneous absorption enhancing effect” value [1] is reported as 1.0, the “Percutaneous absorption enhancing effect” value is reported as 1.0 and the “Q24 (cumulative skin permeation amount of compound A per unit area for 24 hours)” value is reported as 709.05 ± 76.18 µg/cm^2. For the same molecule, the “Q48 (cumulative skin permeation amount of compound A per unit area for 48 hours)” value ([2]; human skin (2): horny, epidermal, dermal and some fat layers, approximately 1 mm, freeze-stored, thawed, fat removed, donor: compound A 50 mg/mL with enhancer, mean ± S.E., n=2 or 3) was “(2) 3 ± 1 µg/cm^2” and the “Percutaneous absorption enhancing effect” value ([2]; human skin (2), ratio of Q48 of compound A with enhancer to that without enhancer (3 ± 1)) was 1.0.
